Assay results reported in PubChem BioAssay AID1199 (EPA DSSTox, 2008).
Activity calls are given as the source filed them.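 How the source made its calls: active means a tumour-causing dose and a tumour site recorded for mice in at least one sex group; inconclusive means only government mouse studies exist and were judged inadequate; inactive means mouse studies exist but none gave tumours.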

Test system: mouse carcinogenicity bioassay, TD50 from CPDB
Experiment: DSSTox (CPDBAS) Carcinogenic Potency Database Summary Mouse Bioassay Results
Conditions: for outcome: TD50_Mouse_Note: no positive results
From the text: The Carcinogenic Potency Database (CPDB) is a unique and widely used international resource of the results of over 6500 chronic, long-term animal cancer tests on over 1500 chemical substances. The CPDB provides easy access to the bioassay literature, with qualitative and quantitative analyses of both positive and negative experiments that have been published over the past 50 years in the general literature and by the National Cancer Institute/National Toxicology Program. The CPDB standardizes the diverse literature of cancer bioassays that vary widely in protocol, histopathological examination and nomenclature, and in the published author's choices of what information to provide in their papers. Results are reported in the CPDB for tests in rats, mice, hamsters, dogs, and nonhuman primates, and are based on the most positive result among all experiments for each sex-species. The DSSTox CPDBAS (all species) file incorporates data from the CPDB Summary Tables for the full list of over 1500 chemical substances tested in at least one species. Summary bioassay results for Mouse (TD50, tumor sites, male, female, both sexes) are provided in the CPDB Summary Tables and the DSSTox CPDBAS file for over 1000 chemical substances.
TD50 is a standardized quantitative measure of carcinogenic potency (analogous to an LD50) and is reported in the CPDB Summary Table for each species. Activity Score for actives is computed by mapping of LOG10 (1/TD50_Mouse_mmol) activity values spanning range [MIN, MAX] onto Integer 1-100 Activity Score range, where 100 is highest potency and 1 is lowest: Activity Score = 100 * INTEGER[(log10(1/Activity) - MIN)/(MAX […] MIN)]. If activity is reported but no TD50_Mouse_mmol value is computed, such as for a mixture, the Activity Score is assigned the activity value "50". […] Target sites are reported for each sex-species group with a positive result in the CPDB on the basis of a positive author's opinion for the particular site, using all results from both the general literature and NCI/NTP bioassays. If a chemical has two or more target sites listed, the results may be from different experiments, and a single site may be a target organ in more than one experiment, as well. Blank entry in TargetSites field indicates no results reported.

[1] = TargetSites_Mouse_Female: no positive results
[2] = TargetSites_Mouse_Female: liver
[3] = TD50_Mouse_Note: TD50 is harmonic mean of more than one positive test, TargetSites_Mouse_Female: liver
[4] = TD50_Mouse_Note: positive test results only by intraperitoneal or intravenous injection, TargetSites_Mouse_Female: hematopoietic system
[5] = TD50_Mouse_Note: TD50 is harmonic mean of more than one positive test, TargetSites_Mouse_Female: stomach
[6] = TD50_Mouse_Note: TD50 is harmonic mean of more than one positive test, TargetSites_Mouse_Female: liver, vascular system

SMILES: CC(=O)Oc1ccccc1C(=O)O
- outcome [1]: inactive; no positive results

SMILES: CCCOC(=O)C1c2cc3c(cc2CC(C)C1C(=O)OCCC)OCO3 (centres undefined)
- outcome [1]: inactive; no positive results

SMILES: NC(=O)Cc1c([O-])on[n+]1Cc1ccccc1
- Potency [2]: 0.0437 mmol/kg/day

SMILES: CCCCCCCCCCCCCCCC(=O)OC/C=C(C)/C=C/C=C(C)/C=C/C1=C(C)CCCC1(C)C
- outcome: inactive; no positive results

SMILES: C/C1=C\C=C(\C(C)C)[C@@H](O)C/C(C)=C/CC/C(C)=C/CC1
- outcome: inactive; no positive results

SMILES: NNCc1ccccc1
- Potency (TargetSites_Mouse_Female: lung): 0.437 mmol/kg/day

SMILES: CC(C)(C)O
- Potency (TargetSites_Mouse_Female: thyroid gland): 295 mmol/kg/day

SMILES: O=S(=O)(O)c1cc(S(=O)(=O)O)c2c(N=Nc3ccccc3)c(O)ccc2c1
- outcome [1]: inactive; no positive results

SMILES: CCn1nc(C)c2c1C(c1ccccc1)=NCC(=O)N2
- Potency [3]: 0.425 mmol/kg/day

SMILES: Nc1ccc([N+](=O)[O-])cc1
- outcome [1]: inactive; no positive results

SMILES: Nc1ccccc1C(=O)O
- outcome [1]: inactive; no positive results

SMILES: CC(O)c1ccccc1 (centres undefined)
- outcome [1]: inactive; no positive results

SMILES: C[C@]12CC[C@H](OS(=O)(=O)O)CC1=CC[C@@H]1[C@@H]2CC[C@]2(C)C(=O)CC[C@@H]12
- outcome [1]: inactive; no positive results

SMILES: O=C1CCCCCN1
- outcome [1]: inactive; no positive results

SMILES: CC1=C(C(=O)OC(C)C)C(c2cccc([N+](=O)[O-])c2)C(C(=O)OC2CN(C(c3ccccc3)c3ccccc3)C2)=C(N)N1 (centres undefined)
- outcome [1]: inactive; no positive results

SMILES: Nc1c(Cl)c(Cl)nc(C(=O)O)c1Cl
- outcome [1]: inactive; no positive results

SMILES: CCc1ccccc1
- Potency [3]: 15.1 mmol/kg/day

SMILES: O1[As]2O[As]3O[As]1O[As](O2)O3
- outcome [1]: inactive; no positive results

SMILES: CN(C)C(=O)Nc1cccc(C(F)(F)F)c1
- outcome [1]: inactive; no positive results

SMILES: O=[N+]([O-])c1ccc(-c2cnc3ccccn23)o1
- Potency (TD50_Mouse_Note: TD50 is harmonic mean of more than one positive test, TargetSites_Mouse_Female: esophagus, stomach): 0.118 mmol/kg/day

SMILES: C=COC(N)=O
- Potency (TD50_Mouse_Note: positive test results only by intraperitoneal or intravenous injection, TD50 is harmonic mean of more than one positive, TargetSites_Mouse_Female: liver, vascular system): 0.00142 mmol/kg/day

SMILES: CC1=C[C@H]2[C@@]3(O)[C@H](C)[C@@H](O)[C@]4(O)[C@H]([C@@H]3C=C(CO)C[C@]2(O)C1=O)C4(C)C
- Potency [4]: 0.00606 mmol/kg/day

SMILES: c1ccc(C2CO2)cc1 (centres undefined)
- Potency [5]: 0.982 mmol/kg/day

SMILES: Oc1ccc(O)cc1
- Potency (TD50_Mouse_Note: TD50 is harmonic mean of more than one positive test, greater than ten-fold variation among TD50 values for positive res, TargetSites_Mouse_Female: liver): 2.04 mmol/kg/day

SMILES: CN(C)C(=O)Cl
- Potency (TD50_Mouse_Note: positive test results only by intraperitoneal or intravenous injection, TargetSites_Mouse_Female: peritoneal cavity): 0.0499 mmol/kg/day

SMILES: NC(=O)c1ccccc1C(N)=O
- outcome [1]: inactive; no positive results

SMILES: COC(C)(C)C
- Potency [2]: 74.3 mmol/kg/day

SMILES: [O]=[Mo](=[O])=[O]
- Potency (TD50_Mouse_Note: TD50 is harmonic mean of more than one positive test, greater than ten-fold variation among TD50 values for positive res, TargetSites_Mouse_Female: lung): 0.0426 mmol/kg/day

SMILES: CC(=O)N[C@@H](CC(C)C)C(=O)N[C@@H](CC(C)C)C(=O)N[C@H](C=O)CCCN=C(N)N
- Potency [1]: 0.131 mmol/kg/day

SMILES: ClC1=C(Cl)[C@]2(Cl)[C@@H]3[C@H]4C[C@H]([C@@H]5O[C@H]45)[C@@H]3[C@@]1(Cl)C2(Cl)Cl
- outcome [1]: inactive; no positive results

SMILES: ClC(Cl)Br
- Potency [3]: 0.291 mmol/kg/day

SMILES: Cc1cc2c(nc1N)[nH]c1ccccc12
- Potency [6]: 0.0863 mmol/kg/day

SMILES: OC[C@@H](O)[C@@H](O)[C@H](O)[C@H](O)CO[C@H]1O[C@H](CO)[C@@H](O)[C@H](O)[C@H]1O
- outcome [1]: inactive; no positive results

SMILES: CCN(Cc1cccc(S(=O)(=O)O)c1)c1ccc(C(=C2C=CC(=[N+](CC)Cc3cccc(S(=O)(=O)[O-])c3)C=C2)c2ccccc2)cc1
- outcome [1]: inactive; no positive results

SMILES: CCCCC(CC)COC(=O)c1ccccc1C(=O)OCC(CC)CCCC (centres undefined)
- Potency [3]: 1.79 mmol/kg/day

SMILES: Cc1cccc2ccccc12
- outcome [1]: inactive; no positive results

SMILES: CNNCc1ccc(C(=O)NC(C)C)cc1
- Potency (TD50_Mouse_Note: positive test results only by intraperitoneal or intravenous injection, TD50 is harmonic mean of more than one positive, TargetSites_Mouse_Female: hematopoietic system, lung, nervous system, uterus): 0.00216 mmol/kg/day

SMILES: CC(CN1c2ccccc2Sc2ccccc21)N(C)C (centres undefined)
- outcome [1]: inactive; no positive results

SMILES: CC(=O)Nc1ccc2c(c1)Cc1ccccc1-2
- Potency (TD50_Mouse_Note: TD50 is harmonic mean of more than one positive test, greater than ten-fold variation among TD50 values for positive res, TargetSites_Mouse_Female: liver, urinary bladder): 0.034 mmol/kg/day

SMILES: S=P(N1CC1)(N1CC1)N1CC1
- Potency (TD50_Mouse_Note: positive test results only by intraperitoneal or intravenous injection, TD50 is harmonic mean of more than one positive, TargetSites_Mouse_Female: hematopoietic system): 0.00118 mmol/kg/day

SMILES: C=CC=C
- Potency (TD50_Mouse_Note: TD50 is harmonic mean of more than one positive test, greater than ten-fold variation among TD50 values for positive res, TargetSites_Mouse_Female: harderian gland, hematopoietic system, liver, lung, mammary gland, ovary, stomach, vascular system): 0.257 mmol/kg/day

SMILES: Cc1cc(C(C)(C)C)c(O)c(C(C)(C)C)c1
- Potency (TD50_Mouse_Note: TD50 is harmonic mean of more than one positive test, TargetSites_Mouse_Female: no positive results): 2.96 mmol/kg/day

SMILES: Cc1cc(C)nc(NS(=O)(=O)c2ccc(N)cc2)n1
- Potency (TD50_Mouse_Note: TD50 is harmonic mean of more than one positive test, TargetSites_Mouse_Female: thyroid gland): 5.43 mmol/kg/day

SMILES: Cc1c(N(C)CS(=O)(=O)O)c(=O)n(-c2ccccc2)n1C
- Potency [3]: 1.89 mmol/kg/day

SMILES: CN(Cc1cnc2nc(N)nc(N)c2n1)c1ccc(C(=O)N[C@@H](CCC(=O)O)C(=O)O)cc1
- outcome [1]: inactive; no positive results

SMILES: CN(C)C(=S)[S-].CN(C)C(=S)[S-].[Cu+2]
- outcome [1]: inactive; no positive results

SMILES: CCS(=O)(=O)c1ccc(S(N)(=O)=O)c2ccccc12
- Potency (TD50_Mouse_Note: TD50 is harmonic mean of more than one positive test, TargetSites_Mouse_Female: urinary bladder): 0.0705 mmol/kg/day

SMILES: N=C1C=CC(=C(c2ccc(N)cc2)c2ccc(N)cc2)C=C1
- Potency (TD50_Mouse_Note: TD50 is harmonic mean of more than one positive test, TargetSites_Mouse_Female: adrenal gland, liver): 0.159 mmol/kg/day

SMILES: O=C(O)c1ccc(N=Nc2ccc(O)c(C(=O)O)c2)cc1
- outcome [1]: inactive; no positive results

SMILES: Cc1ccc(Cl)cc1N
- Potency [6]: 1.38 mmol/kg/day

SMILES: ClC1(Cl)C2(Cl)C3(Cl)C4(Cl)C(Cl)(Cl)C5(Cl)C3(Cl)C1(Cl)C5(Cl)C24Cl (centres undefined)
- Potency [3]: 0.00266 mmol/kg/day

SMILES: O=S(=O)(c1ccc(Cl)cc1)c1cc(Cl)c(Cl)cc1Cl
- outcome [1]: inactive; no positive results

SMILES: C[C@H]1CCCC(=O)CCC/C=C/c2cc(O)cc(O)c2C(=O)O1
- Potency (TD50_Mouse_Note: TD50 is harmonic mean of more than one positive test, TargetSites_Mouse_Female: liver, pituitary gland): 0.123 mmol/kg/day

SMILES: CCCCC(C)(O)C/C=C/[C@H]1[C@H](O)CC(=O)[C@@H]1CCCCCCC(=O)OC (some centres undefined)
- outcome [1]: inactive; no positive results

SMILES: O=CNNC=O
- Potency (TD50_Mouse_Note: TD50 is harmonic mean of more than one positive test, TargetSites_Mouse_Female: lung): 7.59 mmol/kg/day

SMILES: O=C(O)Cc1cccc2ccccc12
- outcome [1]: inactive; no positive results

SMILES: CCCCCNN
- Potency (TargetSites_Mouse_Female: lung, vascular system): 0.0423 mmol/kg/day

SMILES: CCCC/C=N/N(C)C=O
- Potency (TD50_Mouse_Note: TD50 is harmonic mean of more than one positive test, TargetSites_Mouse_Female: liver, lung): 0.0241 mmol/kg/day

SMILES: CC1=C(/C=C/C(C)=C/C=C/C(C)=C/C=C/C=C(C)/C=C/C=C(C)/C=C/C2=C(C)CCCC2(C)C)C(C)(C)CCC1
- outcome [1]: inactive; no positive results

SMILES: ClCc1cccnc1
- Potency [5]: 1.4 mmol/kg/day

SMILES: OC[C@@H](O)[C@H]1O[C@@H]2O[C@H](C(Cl)(Cl)Cl)O[C@@H]2[C@H]1O
- outcome [1]: inactive; no positive results

SMILES: N#CC(c1ccccc1)c1ccccc1
- outcome [1]: inactive; no positive results

SMILES: CCOP(=O)(CC1CO1)OCC (centres undefined)
- outcome [1]: inactive

SMILES: CN[C@@H](C)[C@H](O)c1ccccc1
- outcome [1]: inactive; no positive results

SMILES: O=[N+]([O-])c1cc(N(CCO)CCO)ccc1NCCO
- outcome [1]: inactive; no positive results

SMILES: CCC(C)c1cc([N+](=O)[O-])cc([N+](=O)[O-])c1O (centres undefined)
- outcome [1]: inactive; no positive results

SMILES: CC(C)=CCl
- Potency [5]: 0.165 mmol/kg/day

SMILES: CC(=O)NNc1ccccc1
- Potency (TD50_Mouse_Note: TD50 is harmonic mean of more than one positive test, TargetSites_Mouse_Female: vascular system): 0.341 mmol/kg/day

SMILES: CCCc1cc(=O)[nH]c(=S)[nH]1
- Potency (TargetSites_Mouse_BothSexes: pituitary gland): 2.4 mmol/kg/day

SMILES: CC(CN1CC(=O)NC(=O)C1)N1CC(=O)NC(=O)C1 (centres undefined)
- Potency [4]: 0.0883 mmol/kg/day

SMILES: CN(C)C(=S)SSC(=S)N(C)C
- outcome [1]: inactive; no positive results

SMILES: O=S(=O)(c1ccc(Cl)cc1)c1ccc(Cl)cc1
- outcome [1]: inactive; no positive results

SMILES: CC[C@H](C)C(=O)O[C@H]1C[C@@H](C)C=C2C=C[C@H](C)[C@H](CC[C@@H]3C[C@@H](O)CC(=O)O3)[C@H]21
- Potency (TD50_Mouse_Note: TD50 is harmonic mean of more than one positive test, TargetSites_Mouse_Female: liver, lung, stomach): 1.27 mmol/kg/day

SMILES: O=CNc1nc(-c2ccc([N+](=O)[O-])o2)cs1
- Potency (TD50_Mouse_Note: TD50 is harmonic mean of more than one positive test, greater than ten-fold variation among TD50 values for positive res, TargetSites_Mouse_Female: hematopoietic system, lung, stomach, urinary bladder): 0.0824 mmol/kg/day
